Experimental data: ChEMBL document CHEMBL3886475, “Substituted hetero-bicyclic compounds, compositions and medicinal applications thereof” (2016)

Molecular target: Tyrosine-protein kinase BTK (Homo sapiens, UniProt Q06187)
Experiment: Recombinant Human BTK Inhibition Assay: The inhibition assays were performed using the generic tyrosine kinase assay kit from C is Bio (HTRF KinEASE-TK #62TK0PEB). The assay is based on the principle of fluorescence resonance energy transfer (FRET) between the Europium Cryptate labeled anti-phosphotyrosine antibody and streptavidin labeled fluorophore, XL-665. In an uninhibited kinase reaction the biotinylated peptide substrate (Tk-Biotin) gets phosphorylated at an intermediate tyrosine site which is captured by anti-phosphotyrosine antibody which eventually acts as a FRET donor. The streptavidin labeled XL-665 binds strongly to the Tk-Biotin substrate and act as a FRET acceptor. The resultant FRET signal is measured at 665 nm. A ratio of this specific fluorescence (665 nm) to the background fluorescence (620 nm), conferred by the free antibody, is directly proportional to the kinase activity. Inhibition of the kinase activity by a pharmacological intervention such as a Btk inhibitor of the present disclosure will result into decreased FRET signal.

Sequence of Tyrosine-protein kinase BTK (Q06187 whole entry): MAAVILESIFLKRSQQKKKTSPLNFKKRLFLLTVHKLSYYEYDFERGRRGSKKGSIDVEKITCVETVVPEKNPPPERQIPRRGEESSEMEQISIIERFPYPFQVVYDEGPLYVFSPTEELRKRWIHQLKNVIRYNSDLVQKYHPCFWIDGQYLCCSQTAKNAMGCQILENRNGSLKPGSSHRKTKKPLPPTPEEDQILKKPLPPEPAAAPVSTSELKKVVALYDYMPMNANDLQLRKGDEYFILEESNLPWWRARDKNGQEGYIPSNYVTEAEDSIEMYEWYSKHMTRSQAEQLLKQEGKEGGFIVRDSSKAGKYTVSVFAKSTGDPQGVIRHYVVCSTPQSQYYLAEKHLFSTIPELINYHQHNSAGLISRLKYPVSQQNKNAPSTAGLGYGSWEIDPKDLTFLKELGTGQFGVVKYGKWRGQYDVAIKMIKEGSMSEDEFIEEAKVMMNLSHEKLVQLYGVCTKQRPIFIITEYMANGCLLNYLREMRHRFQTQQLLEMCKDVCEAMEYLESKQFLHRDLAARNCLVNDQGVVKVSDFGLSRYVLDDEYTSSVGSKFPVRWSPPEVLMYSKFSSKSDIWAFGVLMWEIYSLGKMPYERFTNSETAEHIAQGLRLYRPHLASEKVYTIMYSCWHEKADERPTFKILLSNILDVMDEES

For CCN1CC(n2cc(-c3cc4c(-c5cccc(N6CCOc7cc(C8CC8)ccc7C6=O)c5CO)ccnc4[nH]3)cn2)C1, the IC50 was 7 nM.
